{"source": "patent US9259401B2", "about": "(priority 2011, dated 2016)", "key": {"Dopamine": {"test_system": "Dopamine", "test": "Biological amine levels by HPLC-ECD after 45 min: dopamine", "type": "in vivo, mice", "description": "(§1) Test Substances: […] Animals: Male Laca mice. Test Procedures: Animals were sacrificed after 45 min of drug administration similar to the time period of behavioral observations. HPLC-ECD detector: Mobile phase—Phosphate buffer: […] • Column—ODS-3 C-18 column (250×4.6 mm I.D.; 5 μm particle size)"}, "[1]": {"test_system": "monoamine oxidase enzymes", "details": "mice; cited from earlier work"}, "hippocampal neurogenesis": {"test_system": "hippocampal neurogenesis", "details": "10 and 20 mg/kg, P.O., chronically stressed rats; cited from earlier work"}, "Male Laca mice": {"test_system": "Male Laca mice", "test": "Porsolt Forced Swim test (behavioural despair test)", "type": "in vivo", "description": "Method: Porsolt Forced Swim test (also called behavioural despair test)\nAnimals are subjected to two trials during which they are force to swim in an acrylic glass cylinder filled with water and from which they cannot escape. The first trial lasts 15 minutes. Then, after 24-hours, a second trial is performed which lasts 5 minutes. The time that the animal spends without moving in the second trial is measured. This immobility time is decreased by antidepressants.\nAfter some time, the mice give up the attempt to escape from the water and subside into immobility. The duration of the immobility is measured. An animal was considered to be immobile whenever it remained floating passively in the water in a slightly hunched but upright position, its nose above the water surface. […] The total immobility period during the 6-min test was recorded with the help of stopwatch.\nThe immobility period data obtained from tables 1, 2 and 3 is plotted against the dose administered in FIG. 1, FIG. 2 and FIG. 3 respectively, as shown in the drawing accompanying this specification.\nTest Procedures: Porsolt Forced Swim test. Rectangular glass jar (25×12×25 cm^3) containing 15 cm of water maintained at 24±1° C.\nThe immobility period data obtained from Tables 4, 5, 6 and 7 is plotted against the dose administered in FIG. 4, FIG. 5, FIG. 6 and FIG. 7 respectively, as shown in the drawing accompanying this specification."}, "5-hydroxytryptamine": {"test_system": "5-hydroxytryptamine", "test": "Biological amine levels by HPLC-ECD after 45 min: 5-hydroxytryptamine", "type": "in vivo, mice", "description": "as §1"}, "[2]": {"test": "Safety and tolerability of a single dose in healthy human subjects", "type": "in vivo", "details": "curcumin 1 gm single dose", "description": "The secondary aim of study was to monitor the safety and tolerability of a single dose of 1 g curcuminoids when administered in 12 healthy human subjects."}, "[3]": {"details": "dose 100 mg/kg vs fluoxetine 10 mg/kg"}, "[4]": {"details": "dose 100 mg/kg, sacrificed after 45 min, n = 5"}}, "data": [{"smiles": "COc1cc(C=CC(=O)CC(=O)C=Cc2ccc(O)c(OC)c2)ccc1O", "note": "[Curcumin, 1,7-bis(4-hydroxy-3-methoxyphenyl)-1,6-heptadien-3,5-dione]", "values": [{"measurement": "Dopamine % increase w.r.t Control", "setting": "Dopamine; dose 100 mg/kg", "result": "−20.25", "unit": "%"}, {"measurement": "Dopamine % increase w.r.t Fluoxetine", "setting": "Dopamine; [3]", "result": "−21.77", "unit": "%"}, {"measurement": "Dopamine (ng/mg tissue)", "setting": "Dopamine; [4]", "result": "4.33 ± 0.58", "unit": "ng/mg tissue"}, {"measurement": "Monoamine oxidase enzymes", "setting": "[1]", "result": "inhibited the monoamine oxidase enzymes"}, {"measurement": "Hippocampal neurogenesis", "setting": "hippocampal neurogenesis", "result": "increased hippocampal neurogenesis"}, {"measurement": "Potentiation with sub-effective dose of desipramine", "setting": "Male Laca mice; 50 mg/kg with desipramine 5 mg/kg", "result": "failed to show any potentiation"}, {"measurement": "Potentiated effect with sub-effective dose of tranylcypromine", "setting": "Male Laca mice; 50 mg/kg with tranylcypromine 5 mg/kg", "result": "None"}, {"measurement": "% Decrease in immobility w.r.t saline treated group", "setting": "Male Laca mice; Table 1, dose 50 mg/kg", "result": 22.55, "unit": "%"}, {"measurement": "Immobility period (in seconds)", "setting": "Male Laca mice; Table 1, dose 50 mg/kg", "result": "171.8 ± 10.87^ seconds"}, {"measurement": "% Decrease in immobility w.r.t saline treated group", "setting": "Male Laca mice; Table 2, dose 100 mg/kg", "result": 9.89, "unit": "%"}, {"measurement": "Immobility period", "setting": "Male Laca mice; Table 2, dose 100 mg/kg", "result": "174.2 ± 15.17", "unit": "s"}, {"measurement": "% Decrease in immobility w.r.t saline treated group", "setting": "Male Laca mice; Table 3, dose 200 mg/kg", "result": 31.10, "unit": "%"}, {"measurement": "Immobility period", "setting": "Male Laca mice; Table 3, dose 200 mg/kg", "result": "133.2 ± 26.82", "unit": "s"}, {"measurement": "% Decrease in immobility w.r.t saline group", "setting": "Male Laca mice; Table 4, alone, 50 mg/kg", "result": 12.79, "unit": "%"}, {"measurement": "Immobility period (in seconds)", "setting": "Male Laca mice; Table 4, alone, 50 mg/kg", "result": "171.8 ± 10.87^ seconds"}, {"measurement": "% Decrease in immobility w.r.t vehicle group", "setting": "Male Laca mice; Table 5, alone, 50 mg/kg", "result": 24.46, "unit": "%"}, {"measurement": "Immobility period", "setting": "Male Laca mice; Table 5, alone, 50 mg/kg", "result": "160.33 ± 19.09", "unit": "s"}, {"measurement": "% Decrease in immobility w.r.t vehicle group", "setting": "Male Laca mice; Table 6, alone, 50 mg/kg", "result": 15.90, "unit": "%"}, {"measurement": "Immobility period", "setting": "Male Laca mice; Table 6, alone, 50 mg/kg", "result": "215.50 ± 13.97", "unit": "s"}, {"measurement": "% Decrease in immobility w.r.t vehicle group", "setting": "Male Laca mice; Table 7, alone, 50 mg/kg", "result": 4.91, "unit": "%"}, {"measurement": "Immobility period", "setting": "Male Laca mice; Table 7, alone, 50 mg/kg", "result": "262.25 ± 11.89", "unit": "s"}, {"measurement": "5-hydroxytryptamine % increase w.r.t Control", "setting": "5-hydroxytryptamine; dose 100 mg/kg", "result": 6.80, "unit": "%"}, {"measurement": "5-hydroxytryptamine % increase w.r.t Fluoxetine", "setting": "5-hydroxytryptamine; [3]", "result": "−21.77", "unit": "%"}, {"measurement": "5-hydroxytryptamine (ng/mg tissue)", "setting": "5-hydroxytryptamine; [4]", "result": "4.24 ± 0.56", "unit": "ng/mg tissue"}, {"measurement": "Tolerability", "setting": "[2]; all subjects", "result": "well tolerated"}, {"measurement": "Adverse events", "setting": "[2]; entire course of study", "result": "no adverse events reported"}]}]}
